Results reported in patent US20100190724A1, “USE OF MELANOCYTE-STIMULATING HORMONE RELEASE-INHIBITING FACTOR AS A THERAPEUTIC AGENT IN THE TREATMENT OF PSEUDOMONAS AERUGINOSA INFECTION” (priority 2007, published 2010).
Where a SMILES comes first, the peptide text is derived from it.

Experiments:
MRC-5 cells = experiment: Cytotoxicity testing in MRC-5 cells (CellTiter 96); type: cell-based, human; details: 6 days incubation
Protocol: (§1) The following day, peptide was added and tested in duplicates.

Pseudomonas aeruginosa = type: cell-based; details: 5 micrograms per ml
IL-2 = experiment: Th1/Th2 cytokine profiling assay: IL-2; type: cell-based, Balb/c mice; details: Ovalbumin-restimulated spleen cells; peptide 10 micrograms per ml; 72 hours
HIV-1IIB = experiment: HIV-1 antiviral assay (CPE reduction, MTS) in CEM-SS cells; type: cell-based; details: peptide 10 micrograms per ml, 6 days post-infection
[1] = Cytotoxicity testing in MRC-5 cells (CellTiter 96); type: cell-based, human; details: human, 6 days incubation, read-out: % Cell viability
Protocol: as §1

HUVEC = experiment: Endothelial tube formation assay; type: cell-based, human; details: peptide 10 micrograms per ml, 20 hours
Excerpt: Positive control was vehicle only.

[2] = system: hepatitis B virus (HBV) ayw strain; experiment: HBV replication assay in HepG2-2.2.15 cells (TaqMan PCR of secreted HBV DNA); type: cell-based; details: peptide 10 micrograms per ml, six days, HBV DNA by TaqMan PCR
Protocol: HepG2-2.2.15 is a stable cell line containing the hepatitis B virus (HBV) ayw strain genome (ATCC Cat. No. CRL-11997). Antiviral compounds blocking any late step of viral replication such as transcription, translation, pregenome encapsidation, reverse transcription, particle assembly and release can be identified and characterized using this cell line.
HepG2-2.2.15 cells were plated in 96-well microtiter plates. After 16-24 hours the confluent monolayer of HepG2-2.2.15 cells was washed and the medium was replaced with complete medium containing test peptide—10 micrograms per ml—in duplicate. […] Three days later the culture medium was replaced with fresh medium containing the peptide. Six days following the initial administration of the peptide, the cell culture supernatants was collected, treated with pronase and DNAse and then used in a real-time quantitative TaqMan PCR assay. The PCR-amplified HBV DNA was detected in real-time by monitoring increases in fluorescence signals that result from the exonucleolytic degradation of a quenched fluorescence probe molecule that hybridizes to the amplified HBV DNA. For each PCR amplification, a standard curve was simultaneously generated using dilutions of purified HBV DNA. Antiviral activity was calculated from the reduction in HBV DNA levels (% virus control). […]

IL-5 = experiment: Th1/Th2 cytokine profiling assay: IL-5; type: cell-based, Balb/c mice; details: Ovalbumin-restimulated spleen cells; peptide 10 micrograms per ml; 72 hours
IFNγ = experiment: Th1/Th2 cytokine profiling assay: IFNγ; type: cell-based, Balb/c mice; details: Ovalbumin-restimulated spleen cells; peptide 10 micrograms per ml; 72 hours
A549 cells [3] = experiment: Apoptosis prevention assay (C2 ceramide, Annexin-5); type: cell-based, human; details: 30 min pretreatment with peptide 10 micrograms per ml, then C2 ceramide
[4] = system: Human Peripheral Blood Mononuclear Cells (PBMC); experiment: B cell proliferation assay (SAC plus Interleukin-2, 3H-thymidine); type: cell-based; details: peptide 10 micrograms per ml, 3H-thymidine incorporation
MRSA = type: cell-based, Staphylococcus Aureus; details: 5 micrograms per ml
A549 cells [5] = experiment: Apoptosis induction assay (Annexin-5); type: cell-based, human; details: peptide 10 micrograms per ml, 24 hours
TNF-a = experiment: Th1/Th2 cytokine profiling assay: TNF-a; type: cell-based, Balb/c mice; details: Ovalbumin-restimulated spleen cells; peptide 10 micrograms per ml; 72 hours
A549 cells [6] = experiment: Propidium iodide cell cycle assay; type: cell-based, human; details: peptide 10 micrograms per ml, 24 hours, FACS
[7] = system: Human Peripheral Blood Mononuclear Cells (PBMC); experiment: T cell proliferation assay (PHA, 3H-thymidine); type: cell-based; details: peptide 10 micrograms per ml, 3H-thymidine incorporation
[8] = Cytotoxicity (dye uptake cell viability) in HBV assay; type: cell-based; details: human, HepG2-2.2.15 cells, peptide 10 micrograms per ml
Protocol: HepG2-2.2.15 cells were plated in 96-well microtiter plates. After 16-24 hours the confluent monolayer of HepG2-2.2.15 cells was washed and the medium was replaced with complete medium containing test peptide—10 micrograms per ml—in duplicate. Lamivudine (3TC) was used as the positive control, while media alone was added to the cells as a negative control (virus control). Three days later the culture medium was replaced with fresh medium containing the peptide. Six days following the initial administration of the peptide, the cell culture supernatants was collected, treated with pronase and DNAse and then used in a real-time quantitative TaqMan PCR assay. The PCR-amplified HBV DNA was detected in real-time by monitoring increases in fluorescence signals that result from the exonucleolytic degradation of a quenched fluorescence probe molecule that hybridizes to the amplified HBV DNA. For each PCR amplification, a standard curve was simultaneously generated using dilutions of purified HBV DNA. Antiviral activity was calculated from the reduction in HBV DNA levels (% virus control). A novel dye uptake assay was then employed to measure cell viability, which is used to calculate toxicity (% cell control).

IL-4 = experiment: Th1/Th2 cytokine profiling assay: IL-4; type: cell-based, Balb/c mice; details: Ovalbumin-restimulated spleen cells; peptide 10 micrograms per ml; 72 hours
Streptococcus pneumoniae = type: cell-based; details: 5 micrograms per ml
RAW 264.7 cells = experiment: Phagocytosis assay (Fluorescein-labeled Escherichia coli, flow cytometry); type: cell-based, mouse; details: peptide 10 micrograms per ml, 30 min preincubation, 60 min ingestion
HCMV strain AD169 = experiment: HCMV plaque reduction assay in MRC-5 cells; type: cell-based, human cytomegalovirus; details: peptide 10 micrograms per ml, 7-10 days
Excerpt: Ganciclovir was used as positive control.

TNF alpha = TNF alpha production assay in LPS-stimulated macrophages (ELISA); type: cell-based, human; details: PBMC-derived macrophages, peptide 10 micrograms per ml, lipopolysaccharide 200 ng/ml, overnight
Excerpt: Not stimulated macrophages served as negative background control.

[9] = system: Primary Human endothelial cells (HUVEC); experiment: Endothelial cell migration assay; type: cell-based; details: peptide 10 micrograms per ml, 22 hours
[10] = Cytotoxicity (MTS cell viability) in HIV-1 experiments; details: human, CEM-SS cells
CEM-SS cells = experiment: as above; details: peptide 10 micrograms per ml, MTS

Nc1nc(O)c2ncn(COC(CO)CO)c2n1 [Ganciclovir, reference compound]
% Cell viability (MRC-5 cells): 100%

CC(C)C[C@H](NC(=O)[C@@H]1CCCN1)C(=O)NCC(N)=O [MSHRIF, Pro-Leu-Gly-NH2] (H-Pro-Leu-Gly-NH2)
% inhibition (Pseudomonas aeruginosa): 100.0%
IL-2 spleen cells (% of control) (IL-2): 0.0 % of control
% CPE reduction in HIV-1 infected CEM-SS cells (HIV-1IIB): 0.0%
viability at 144 h [1]: 100%
% inhibition of tube formation (HUVEC): 9.0%
% inhibition of HBV replication in HEP G2 cells [2]: 10.9%
IL-5 spleen cells; TH2 response (% of control) (IL-5): 56.7 % of control
IFNγ spleen cells; TH1 response (% of control) (IFNγ): 88.0 % of control
% prevention of ceramide induced apoptosis (A549 cells [3]): 0.0%
% of SAC/IL2 induced control [4]: 79.2%
% inhibition (MRSA): 0.0%
% of induction (A549 cells [5]): 0.9%
TNF-a spleen cells; TH1 response (% of control) (TNF-a): 81.4 % of control
Cell cycle analysis G0/G1 (A549 cells [6]): 56.9
Cell cycle analysis G2/M (A549 cells [6]): 11.7
Cell cycle analysis S (A549 cells [6]): 31.4
% of PHA induced control [7]: 80.8%
viability at 144 h, 10 micrograms per ml [8]: 100%
IL-4 spleen cells; TH2 response (% of control) (IL-4): 0.0 % of control
% inhibition (Streptococcus pneumoniae): 0.0%
% of control phagocytosis (RAW 264.7 cells): 145.7%
% plaque reduction (HCMV strain AD169): 0.0%
% of LPS induction (TNF alpha): 88.2%
% inhibition of migration [9]: −8%
viability at 10 micrograms per ml [10]: 98.4%

Cc1cn([C@H]2C[C@H](N=[N+]=[N-])[C@@H](CO)O2)c(=O)[nH]c1=O [AZT, reference compound]
% CPE reduction in HIV-1 infected CEM-SS cells (HIV-1IIB): 99%
% Cell viability (CEM-SS cells): 97%
